Among the data in patent US12209087B2, “AKT1 modulators” (Alterome Therapeutics, Inc., priority 2022, dated 2025) are IC50 values, retold here.

As a reminder, the IC50 is the concentration that inhibits the measured activity by half.

Structures are written as SMILES.

T1 sequence (P31749 whole entry E17K): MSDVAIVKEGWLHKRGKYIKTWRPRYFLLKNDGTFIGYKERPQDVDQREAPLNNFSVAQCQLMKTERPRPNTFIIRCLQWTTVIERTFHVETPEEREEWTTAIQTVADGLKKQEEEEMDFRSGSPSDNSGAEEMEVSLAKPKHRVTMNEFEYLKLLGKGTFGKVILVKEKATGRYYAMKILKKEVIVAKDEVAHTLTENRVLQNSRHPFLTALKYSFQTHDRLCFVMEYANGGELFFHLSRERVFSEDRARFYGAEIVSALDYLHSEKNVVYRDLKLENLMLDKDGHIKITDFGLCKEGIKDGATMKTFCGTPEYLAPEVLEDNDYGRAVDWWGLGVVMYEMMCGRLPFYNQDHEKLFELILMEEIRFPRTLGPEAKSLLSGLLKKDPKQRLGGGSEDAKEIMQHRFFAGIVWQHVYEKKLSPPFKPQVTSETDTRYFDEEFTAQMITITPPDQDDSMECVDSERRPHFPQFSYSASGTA

One experiment concerns the target T1, full length AKT E17K (Homo sapiens, UniProt P31749, E17K).
T1 construct: host or cells: HEK-293 (ATCC CRL-1573)
As to the kind of experiment: NanoBRET Target Engagement (TE) Assay. Format: cell-based. The note with it: competitive displacement of tracer in cells, read-out: AKT1 E17K IC50. In a few lines: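 Compound and tracer incubated 2 h before luminescence at donor 450 nm and acceptor 600 nm, with extracellular signal inhibited. EC50 by sigmoidal variable-slope regression.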
For orientation: In BRET a luciferase serves as donor, and the signal depends on an acceptor being close.
With `N#Cc1nccc(NC2CCN(Cc3ccc(-n4c(-c5cccnc5N)nc5ccc(-c6ccns6)nc54)cc3)CC2)n1` [Example 483, 4-((1-(4-(2-(2-Aminopyridin-3-yl)-5-(isothiazol-5-yl)-3H-imidazo[4,5-b]pyridin-3-yl)benzyl)piperidin-4-yl)amino)pyrimidine-2-carbonitrile], the 50% inhibitory concentration (IC50) is < 15 nM.

As for `N#Cc1nccc(N2CCN(Cc3ccc(-n4c(-c5cccnc5N)nc5ccc(-c6cccnc6C#N)nc54)cc3)CC2)n1` [Example 424, 4-(4-(4-(2-(2-Aminopyridin-3-yl)-5-(2-cyanopyridin-3-yl)-3H-imidazo[4,5-b]pyridin-3-yl)benzyl)piperazin-1-yl)pyrimidine-2-carbonitrile], the half-maximal inhibitory concentration (IC50) was 15 to 60 nM.

Take `COc1cncc(-c2ccc3nc(-c4cccnc4N)n(-c4ccc(CN5CCC(Nc6ccnc(C#N)n6)CC5)cc4)c3n2)c1` [Example 512, 4-((1-(4-(2-(2-Aminopyridin-3-yl)-5-(5-methoxypyridin-3-yl)-3H-imidazo[4,5-b]pyridin-3-yl)benzyl)piperidin-4-yl)amino)pyrimidine-2-carbonitrile]: the half-maximal inhibitory concentration (IC50) is < 15 nM.

Regarding `Cn1cc(-c2ccc3nc(-c4cccnc4N)n(-c4ccc(CN5CCC(Nc6nccc(C#N)n6)CC5)cc4)c3n2)ccc1=O` [Example 356, 2-((1-(4-(2-(2-Aminopyridin-3-yl)-5-(1-methyl-6-oxo-1,6-dihydropyridin-3-yl)-3H-imidazo[4,5-b]pyridin-3-yl)benzyl)piperidin-4-yl)amino)pyrimidine-4-carbonitrile], the IC50 lay within 60 to 600 nM.

With `Cn1cc(-c2ccc3nc(-c4cccnc4N)n(-c4ccc(CN5CCN(c6nccc(C#N)n6)CC5)cc4)c3n2)ccc1=O` [Example 354, 2-(4-(4-(2-(2-Aminopyridin-3-yl)-5-(1-methyl-6-oxo-1,6-dihydropyridin-3-yl)-3H-imidazo[4,5-b]pyridin-3-yl)benzyl)piperazin-1-yl)pyrimidine-4-carbonitrile], the concentration for half-maximal inhibition (IC50) was in the range of 60 to 600 nM.

For `N#Cc1nccc(NC2CCN(Cc3ccc(-n4c(-c5cccnc5N)nc5ccc(-c6cccnc6F)nc54)cc3)CC2)n1` [Example 558, 4-((1-(4-(2-(2-Aminopyridin-3-yl)-5-(2-fluoropyridin-3-yl)-3H-imidazo[4,5-b]pyridin-3-yl)benzyl)piperidin-4-yl)amino)pyrimidine-2-carbonitrile], the IC50 is < 15 nM.

On to `[2H]C([2H])([2H])Oc1ccc(-c2ccc3nc(-c4cccnc4N)n(-c4ccc(CN5CCC(Nc6ccnc(C#N)n6)CC5)cc4)c3n2)cn1` [Example 598, 4-((1-(4-(2-(2-aminopyridin-3-yl)-5-(6-(methoxy-d3)pyridin-3-yl)-3H-imidazo[4,5-b]pyridin-3-yl)benzyl)piperidin-4-yl)amino)pyrimidine-2-carbonitrile], for which the IC50 was < 15 nM.

Regarding `N#Cc1nccc(NC2CCN(Cc3ccc(-n4c(-c5nccnc5N)nc5ccc(-c6cnn(C7CC7)n6)nc54)cc3)CC2)n1` [Example 631, 4-((1-(4-(2-(3-Aminopyrazin-2-yl)-5-(2-cyclopropyl-2H-1,2,3-triazol-4-yl)-3H-imidazo[4,5-b]pyridin-3-yl)benzyl)piperidin-4-yl)amino)pyrimidine-2-carbonitrile], the 50% inhibitory concentration (IC50) was < 15 nM.

With `N#Cc1nccc(NC2CCN(Cc3ccc(-n4c(-c5cccnc5N)nc5ccc(-c6ccc(C(F)(F)F)cn6)nc54)cc3)CC2)n1` [Example 650, 4-((1-(4-(2-(2-Aminopyridin-3-yl)-5-(5-(trifluoromethyl)pyridin-2-yl)-3H-imidazo[4,5-b]pyridin-3-yl)benzyl)piperidin-4-yl)amino)pyrimidine-2-carbonitrile], the half-inhibitory concentration (IC50) is 15 to 60 nM.

Consider `CN(c1ccnc(C#N)n1)C1CCN(Cc2ccc(-n3c(-c4cccnc4N)nc4cccnc43)cc2)CC1` [Example 390, 4-((1-(4-(2-(2-Aminopyridin-3-yl)-3H-imidazo[4,5-b]pyridin-3-yl)benzyl)piperidin-4-yl)(methyl)amino)pyrimidine-2-carbonitrile], for which the 50% inhibitory concentration (IC50) was < 15 nM.

Turning to `C[C@@H]1CN(Cc2ccc(-n3c(-c4cccnc4N)nc4ccc(-c5ccccc5)nc43)cc2)C[C@H](C)N1c1cc(C#N)ncn1` [Example 380, 6-((2S,6R)-4-(4-(2-(2-Aminopyridin-3-yl)-5-phenyl-3H-imidazo[4,5-b]pyridin-3-yl)benzyl)-2,6-dimethylpiperazin-1-yl)pyrimidine-4-carbonitrile], the IC50 was in the range of 600 to 10000 nM.

On to `C[S+]([O-])c1ccc2nc(-c3cccnc3N)n(-c3ccc(CN4CCC(Nc5ccnc(C#N)n5)CC4)cc3)c2n1` (stereo not drawn) [Example 492, 4-((1-(4-(2-(2-Aminopyridin-3-yl)-5-(methylsulfinyl)-3H-imidazo[4,5-b]pyridin-3-yl)benzyl)piperidin-4-yl)amino)pyrimidine-2-carbonitrile], for which the IC50 lay in the range of 60 to 600 nM.

On to `N#Cc1nccc(NC2CCN(Cc3ccc(-n4c(-c5cccnc5N)nc5ncccc54)cc3)CC2)n1` [Example 533, 4-((1-(4-(2-(2-Aminopyridin-3-yl)-1H-imidazo[4,5-b]pyridin-1-yl)benzyl)piperidin-4-yl)amino)pyrimidine-2-carbonitrile], for which the IC50 lay in the range of 60 to 600 nM.

For the compound `CCn1ncc(-c2ccc3nc(-c4cccnc4N)n(-c4ccc(CN5CCC(Nc6ccnc(C#N)n6)CC5)cc4)c3n2)n1` [Example 609, 4-((1-(4-(2-(2-Aminopyridin-3-yl)-5-(2-ethyl-2H-1,2,3-triazol-4-yl)-3H-imidazo[4,5-b]pyridin-3-yl)benzyl)piperidin-4-yl)amino)pyrimidine-2-carbonitrile], the IC50 was < 15 nM.

As to `N#Cc1nccc(NC2CCN(Cc3ccc(-n4c(-c5cccnc5N)nc5ccc(-c6cnsc6)nc54)cc3)CC2)n1` [Example 480, 4-((1-(4-(2-(2-Aminopyridin-3-yl)-5-(isothiazol-4-yl)-3H-imidazo[4,5-b]pyridin-3-yl)benzyl)piperidin-4-yl)amino)pyrimidine-2-carbonitrile], the IC50 is < 15 nM.

As to `N#Cc1nccc(NC2CCN(Cc3ccc(-n4c(-c5cccnc5N)nc5c(O)ncnc54)cc3)CC2)n1` [Example 494, 4-((1-(4-(8-(2-aminopyridin-3-yl)-6-hydroxy-9H-purin-9-yl)benzyl)piperidin-4-yl)amino)pyrimidine-2-carbonitrile], the IC50 lay within 600 to 10000 nM.

Consider `N#Cc1ncnc(N2CCN(Cc3ccc(-n4c(-c5cccnc5N)nc5ccc(-c6ccc(Cl)cc6)nc54)cc3)CC2)n1` [Example 369, 4-(4-(4-(2-(2-Aminopyridin-3-yl)-5-(4-chlorophenyl)-3H-imidazo[4,5-b]pyridin-3-yl)benzyl)piperazin-1-yl)-1,3,5-triazine-2-carbonitrile], for which the half-maximal inhibitory concentration (IC50) lay in the range of 15 to 60 nM.

Staying with this experiment, now noted: competitive tracer displacement in living cells, read-out: AKT1 E17K IC50.
With `N#Cc1ncnc(N2CCC3(CCN(Cc4ccc(-n5c(-c6cccnc6N)nc6ccc(-c7ccccc7)nc65)cc4)C3)C2)n1` (stereo not drawn) [Example 251, 4-(7-(4-(2-(2-aminopyridin-3-yl)-5-phenyl-3H-imidazo[4,5-b]pyridin-3-yl)benzyl)-2,7-diazaspiro[4.4]nonan-2-yl)-1,3,5-triazine-2-carbonitrile], the IC50 is < 15 nM.

Regarding `N#Cc1cc(N2CC3CCC2CN3Cc2ccc(-n3c(-c4cccnc4N)nc4ccc(-c5ccccc5)nc43)cc2)ncn1` (stereo not drawn) [Example 221, 6-(5-(4-(2-(2-Aminopyridin-3-yl)-5-phenyl-3H-imidazo[4,5-b]pyridin-3-yl)benzyl)-2,5-diazabicyclo[2.2.2]octan-2-yl)pyrimidine-4-carbonitrile], the IC50 fell in the range of 60 to 600 nM.

For the compound `N#Cc1ncccc1C(=O)N1CCN(Cc2ccc(-n3c(-c4cccnc4N)nc4ccc(-c5ccccc5)nc43)cc2)CC1` [Example 143, 3-(4-(4-(2-(2-Aminopyridin-3-yl)-5-phenyl-3H-imidazo[4,5-b]pyridin-3-yl)benzyl)piperazine-1-carbonyl)picolinonitrile], the IC50 fell in the range of 60 to 600 nM.

Consider `N#Cc1ccc(N2CCN(Cc3ccc(-n4c(-c5cccnc5N)nc5cccnc54)cc3)CC2)cn1` [Example 14, 5-(4-(4-(2-(2-Aminopyridin-3-yl)-3H-imidazo[4,5-b]pyridin-3-yl)benzyl)piperazin-1-yl)picolinonitrile], for which the half-inhibitory concentration (IC50) was 600 to 10000 nM.

For the compound `N#Cc1ccnc(N2CCN(Cc3ccc(-n4c(-c5cccnc5N)nc5ccc(N6CCCNC(=O)C6)nc54)cc3)CC2)n1` [Example 283, 2-(4-(4-(2-(2-Aminopyridin-3-yl)-5-(3-oxo-1,4-diazepan-1-yl)-3H-imidazo[4,5-b]pyridin-3-yl)benzyl)piperazin-1-yl)pyrimidine-4-carbonitrile], the IC50 was in the range of 15 to 60 nM.

For the compound `N#Cc1nnccc1C(=O)NC1CCN(Cc2ccc(-n3c(-c4cccnc4N)nc4ccc(-c5ccccc5)nc43)cc2)CC1` [Example 71, N-(1-(4-(2-(2-Aminopyridin-3-yl)-5-phenyl-3H-imidazo[4,5-b]pyridin-3-yl)benzyl)piperidin-4-yl)-3-cyanopyridazine-4-carboxamide], the IC50 lay within 15 to 60 nM.

In the case of `N#Cc1cc(NCc2ccc(-n3c(-c4cccnc4N)nc4cccnc43)cc2)ncn1` [Example 135, 6-((4-(2-(2-aminopyridin-3-yl)-3H-imidazo[4,5-b]pyridin-3-yl)benzyl)amino)pyrimidine-4-carbonitrile], the IC50 lay within 600 to 10000 nM.

Turning to `N#Cc1nccc(N2CCN(Cc3ccc(-n4c(-c5cccnc5N)nc5ccc(-c6cccc(Cl)c6)nc54)cc3)CC2)n1` [Example 296, 4-(4-(4-(2-(2-Aminopyridin-3-yl)-5-(3-chlorophenyl)-3H-imidazo[4,5-b]pyridin-3-yl)benzyl)piperazin-1-yl)pyrimidine-2-carbonitrile], the IC50 was < 15 nM.

`N#Cc1cccc(C(=O)NC2CCN(Cc3ccc(-n4c(-c5cccnc5N)nc5cccnc54)cc3)CC2)n1` [Example 30, N-(1-(4-(2-(2-Aminopyridin-3-yl)-3H-imidazo[4,5-b]pyridin-3-yl)benzyl)piperidin-4-yl)-6-cyanopicolinamide]: the IC50 was 600 to 10000 nM.

`N#Cc1cccc(C(=O)NC2CCN(Cc3ccc(-n4c(-c5cccnc5N)nc5ccc(-c6ccccc6)nc54)cc3)CC2)n1` [Example 56, N-(1-(4-(2-(2-Aminopyridin-3-yl)-5-phenyl-3H-imidazo[4,5-b]pyridin-3-yl)benzyl)piperidin-4-yl)-6-cyanopicolinamide]: the half-maximal inhibitory concentration (IC50) was < 15 nM.
